Data as given in patent US20250361210A1, “3,4-DIHYDROQUINOLIN-2(1H)-ONE COMPOUND” (Kissei Pharmaceutical Co., Ltd., priority 2022, published 2025).

These compounds were tested against T1, human TSHR (Homo sapiens, UniProt P16473) (assay: Antagonist activity using TSH-induced cAMP production in human TSHR-stably expressing CHO cells). Conditions: human TSH 50 ng/mL.
T1 construct: expressed in transfected cells
Format: cell-based
Procedure: Measurement of Antagonist Activity Using TSH-Induced cAMP Production in Human TSHR-Stably Expressing CHO Cells as an Indicator
The human TSHR gene sequence (reference number NM_000369.2) was inserted into the multicloning site of pcDNA3.1(+). The constructed plasmid vector was introduced into CHO cells using the lipofection method to establish human TSHR-stably expressing CHO cells. The obtained cells were seeded at 5×10^4 cells/well in a 96-well poly-D-lysine-coated plate, and cultured in an F12 culture medium containing 10% FBS, 400 μg/mL of G418, 50 U/mL of penicillin and 50 μg/mL of streptomycin under conditions of 37° C. and 5% CO2 for 1 day. After the culture medium was removed, the cells were washed twice with 100 μL of an assay buffer solution (Hanks' Balanced Salt Solution containing 20 mM HEPES and 1 mM IBMX) per well. 30 μL of a test compound-containing assay buffer solution was added to the well and incubated at room temperature for 15 minutes. Then, 30 μL of an assay buffer solution containing human TSH (final concentration 50 ng/mL, R&D Systems, Inc.) was added, and incubated at 37° C. for 1 hour. The supernatant was removed, a Lysis and Detection Buffer 2 (Cisbio) was added, and the mixture was incubated at room temperature for 1 hour to prepare a cell lysate. According to the instruction manual of a cAMP Gs HiRange kit (Cisbio), the cell lysate, d2-labeled cAMP and anti-cAMP Europium Cryptate labeled antibodies (Cisbio) were reacted in a 384-well white microplate. Then, a fluorescence intensity ratio (measurement wavelength 665 nm/620 nm) was measured using a multi-plate reader (PHERAstar FSX, BMG LABTECH, Japan). The fluorescence intensity ratio of each sample was converted to a cAMP content using a standard curve. The cAMP content was converted as a percentage of the control value to calculate the cAMP production rate. The CAMP production rate was plotted against the test compound concentration using Prism (Graph Pad Software Inc.) to calculate the IC50 value. The IC50 of each test compound is shown in the above tables. In the tables, IC50<0.5 μM: A, 0.5 μM≤IC50<3.0 μM: B, 3.0 μM≤IC50<30 μM: C are shown.

T1 sequence (P16473 21-764): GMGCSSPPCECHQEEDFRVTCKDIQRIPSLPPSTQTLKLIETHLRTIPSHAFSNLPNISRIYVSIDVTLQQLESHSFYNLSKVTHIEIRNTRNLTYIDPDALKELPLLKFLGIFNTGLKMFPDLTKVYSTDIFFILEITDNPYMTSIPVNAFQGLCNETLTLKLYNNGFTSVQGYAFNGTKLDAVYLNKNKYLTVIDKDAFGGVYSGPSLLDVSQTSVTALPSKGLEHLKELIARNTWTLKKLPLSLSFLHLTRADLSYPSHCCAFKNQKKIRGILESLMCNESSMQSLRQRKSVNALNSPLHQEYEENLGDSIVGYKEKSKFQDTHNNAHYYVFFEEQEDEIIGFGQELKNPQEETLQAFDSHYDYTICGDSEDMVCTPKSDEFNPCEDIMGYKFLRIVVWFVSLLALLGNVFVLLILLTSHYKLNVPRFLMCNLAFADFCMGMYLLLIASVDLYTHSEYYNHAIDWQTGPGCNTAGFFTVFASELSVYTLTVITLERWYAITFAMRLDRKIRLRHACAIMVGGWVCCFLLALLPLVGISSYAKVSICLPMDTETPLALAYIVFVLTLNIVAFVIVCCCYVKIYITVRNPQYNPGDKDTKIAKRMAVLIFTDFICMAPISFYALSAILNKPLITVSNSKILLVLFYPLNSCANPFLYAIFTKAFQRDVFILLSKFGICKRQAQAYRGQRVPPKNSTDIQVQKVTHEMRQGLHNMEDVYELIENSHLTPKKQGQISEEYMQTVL

Compound	IC50 [nM]
CN1C(=O)[C@H](NC(N)=O)Cc2ccc(F)c(Oc3ccccc3C(F)(F)F)c21 [Example 36]	500 to 3000
CN1C(=O)[C@H](NC(N)=O)Cc2ccc(Cl)c(Oc3cc(F)ccc3Cl)c21 [Example 37, ((3R)-7-chloro-8-(2-chloro-5-fluorophenoxy)-1-methyl-2-oxo-1,2,3,4-tetrahydroquinolin-3-yl)urea]	< 500
Cc1ccc2c(c1Oc1ccccc1C(F)F)N(C)C(=O)[C@H](NC(N)=O)C2 [Example 38, ((3R)-8-(2-(difluoromethyl)phenoxy)-1,7-dimethyl-2-oxo-1,2,3,4-tetrahydroquinolin-3-yl)urea]	< 500
Cc1ccc2c(c1Oc1cc(F)ccc1Cl)N(C)C(=O)[C@H](NC(N)=O)C2 [Example 39, ((3R)-8-(2-chloro-5-fluorophenoxy)-1,7-dimethyl-2-oxo-1,2,3,4-tetrahydroquinolin-3-yl)urea]	< 500
CN1C(=O)[C@H](NC(N)=O)Cc2cccc(Oc3ccccc3Cl)c21 [Example 40, ((3R)-8-(2-chlorophenoxy)-1-methyl-2-oxo-1,2,3,4-tetrahydroquinolin-3-yl)urea]	< 500
CN1C(=O)[C@H](NC(N)=O)Cc2cccc(OC3CCCCC3)c21 [Example 41]	500 to 3000
CN1C(=O)[C@H](NC(N)=O)Cc2cccc(OC3CCCC3)c21 [Example 42, ((3R)-8-(cyclopentyloxy)-1-methyl-2-oxo-1,2,3,4-tetrahydroquinolin-3-yl)urea]	500 to 3000
CN1C(=O)[C@H](NC(N)=O)Cc2ccc(F)c(Oc3ccccc3C(F)F)c21 [Example 43, ((3R)-8-(2-(difluoromethyl)phenoxy)-7-fluoro-1-methyl-2-oxo-1,2,3,4-tetrahydroquinolin-3-yl)urea]	500 to 3000
CN1C(=O)[C@H](NC(N)=O)Cc2ccc(F)c(Oc3cc(F)ccc3Cl)c21 [Example 44, ((3R)-8-(2-chloro-5-fluorophenoxy)-7-fluoro-1-methyl-2-oxo-1,2,3,4-tetrahydroquinolin-3-yl)urea]	< 500
Cc1ccc2c(c1Oc1ccccc1F)N(C)C(=O)[C@H](NC(N)=O)C2 [Example 45, ((3R)-8-(2-fluorophenoxy)-1,7-dimethyl-2-oxo-1,2,3,4-tetrahydroquinolin-3-yl)urea]	< 500
Cc1ccc2c(c1Oc1cccc(F)c1)N(C)C(=O)[C@H](NC(N)=O)C2 [Example 46, ((3R)-8-(3-fluorophenoxy)-1,7-dimethyl-2-oxo-1,2,3,4-tetrahydroquinolin-3-yl)urea]	< 500
Cc1ccccc1Oc1cccc2c1N(C)C(=O)[C@H](NC(N)=O)C2 [Example 47, ((3R)-1-methyl-8-(2-methylphenoxy)-2-oxo-1,2,3,4-tetrahydroquinolin-3-yl)urea]	< 500
Cc1ccc(F)cc1Oc1cccc2c1N(C)C(=O)[C@H](NC(N)=O)C2 [Example 48, ((3R)-8-(5-fluoro-2-methylphenoxy)-1-methyl-2-oxo-1,2,3,4-tetrahydroquinolin-3-yl)urea]	< 500
CN1C(=O)[C@H](NC(N)=O)Cc2ccc(C(F)(F)F)c(Oc3ccccc3F)c21 [Example 49, ((3R)-8-(2-fluorophenoxy)-1-methyl-2-oxo-7-(trifluoromethyl)-1,2,3,4-tetrahydroquinolin-3-yl)urea]	< 500
Cc1ccc2c(c1Oc1cc(F)ccc1F)N(C)C(=O)[C@H](NC(N)=O)C2 [Example 50, ((3R)-8-(2,5-difluorophenoxy)-1,7-dimethyl-2-oxo-1,2,3,4-tetrahydroquinolin-3-yl)urea]	< 500
CN1C(=O)[C@H](NC(N)=O)Cc2cccc(Cc3ccccc3Cl)c21 [Example 51, ((3R)-8-((2-chlorophenyl)methyl)-1-methyl-2-oxo-1,2,3,4-tetrahydroquinolin-3-yl)urea]	< 500

Compound	IC50 [nM]
CN1C(=O)[C@H](NC(N)=O)Cc2cccc(Cc3cc(F)ccc3Cl)c21 [Example 52]	< 500
CN1C(=O)[C@H](NC(N)=O)Cc2cccc(Cc3ccccc3C(F)(F)F)c21 [Example 53, ((3R)-1-methyl-2-oxo-8-((2-(trifluoromethyl)phenyl)methyl)-1,2,3,4-tetrahydroquinolin-3-yl)urea]	< 500
Cc1ccccc1Cc1cccc2c1N(C)C(=O)[C@H](NC(N)=O)C2 [Example 54, ((3R)-1-methyl-8-((2-methylphenyl)methyl)-2-oxo-1,2,3,4-tetrahydroquinolin-3-yl)urea]	< 500
CN1C(=O)[C@H](NC(N)=O)Cc2cccc(Cc3ccccc3C(F)F)c21 [Example 55, ((3R)-8-((2-(difluoromethyl)phenyl)methyl)-1-methyl-2-oxo-1,2,3,4-tetrahydroquinolin-3-yl)urea]	< 500
CN1C(=O)[C@H](NC(N)=O)Cc2ccc(F)c(Cc3cc(F)ccc3Cl)c21 [Example 56]	< 500
CN1C(=O)[C@H](NC(N)=O)Cc2ccc(Cl)c(Cc3cc(F)ccc3Cl)c21 [Example 57, ((3R)-7-chloro-8-((2-chloro-5-fluorophenyl)methyl)-1-methyl-2-oxo-1,2,3,4-tetrahydroquinolin-3-yl)urea]	< 500
Cc1ccc2c(c1Cc1ccccc1Cl)N(C)C(=O)[C@H](NC(N)=O)C2 [Example 58, ((3R)-8-((2-chlorophenyl)methyl)-1,7-dimethyl-2-oxo-1,2,3,4-tetrahydroquinolin-3-yl)urea]	< 500
Cc1ccc2c(c1Cc1cc(F)ccc1Cl)N(C)C(=O)[C@H](NC(N)=O)C2 [Example 59, ((3R)-8-((2-chloro-5-fluorophenyl)methyl)-1,7-dimethyl-2-oxo-1,2,3,4-tetrahydroquinolin-3-yl)urea]	< 500
CN1C(=O)[C@H](NC(N)=O)Cc2ccc(F)c(Cc3ccccc3Cl)c21 [Example 60, ((3R)-8-((2-chlorophenyl)methyl)-7-fluoro-1-methyl-2-oxo-1,2,3,4-tetrahydroquinolin-3-yl)urea]	< 500
CN1C(=O)[C@H](NC(N)=O)Cc2ccc(F)c(Cc3ccccc3C(F)(F)F)c21 [Example 61, ((3R)-7-fluoro-1-methyl-2-oxo-8-((2-(trifluoromethyl)phenyl)methyl)-1,2,3,4-tetrahydroquinolin-3-yl)urea]	< 500
CN1C(=O)[C@H](NC(N)=O)Cc2ccc(Cl)c(Cc3ccccc3Cl)c21 [Example 62, ((3R)-7-chloro-8-((2-chlorophenyl)methyl)-1-methyl-2-oxo-1,2,3,4-tetrahydroquinolin-3-yl)urea]	< 500
Cc1ccccc1Cc1c(F)ccc2c1N(C)C(=O)[C@H](NC(N)=O)C2 [Example 63, ((3R)-7-fluoro-1-methyl-8-((2-methylphenyl)methyl)-2-oxo-1,2,3,4-tetrahydroquinolin-3-yl)urea]	< 500
CN1C(=O)[C@H](NC(N)=O)Cc2ccc(Cl)c(Cc3ccccc3F)c21 [Example 64, ((3R)-7-chloro-8-((2-fluorophenyl)methyl)-1-methyl-2-oxo-1,2,3,4-tetrahydroquinolin-3-yl)urea]	500 to 3000
CN1C(=O)[C@H](NC(N)=O)Cc2ccc(Cl)c(Cc3cccc(F)c3)c21 [Example 65]	500 to 3000
Cc1ccc2c(c1Cc1cccc(F)c1)N(C)C(=O)[C@H](NC(N)=O)C2 [Example 67]	3000 to 30000
Cc1ccc(F)cc1Cc1cccc2c1N(C)C(=O)[C@H](NC(N)=O)C2 [Example 68, ((3R)-8-((5-fluoro-2-methylphenyl)methyl)-1-methyl-2-oxo-1,2,3,4-tetrahydroquinolin-3-yl)urea]	< 500
